Data reported in ChEMBL document CHEMBL5370645, “Discovery, Characterization, and Bioactivity of the Achromonodins: Lasso Peptides Encoded by Achromobacter” (J Nat Prod, 2023).
Calls of active or inactive are those of the source. No cut-off for these calls is given here. Positions of bridges follow the written chain, without caps; N, C: chain ends. Residues, ends and D or L forms follow the SMILES beside them.

Tested on: Escherichia coli
Experiment: Inhibition of Escherichia coli RNA polymerase assessed as reduction in transcriptional capacity by abortive transcription initiation assay

inhibition: Active
Compound: CC[C@H](C)[C@@H]1NC(=O)[C@H](CO)NC(=O)CNC(=O)[C@H](CC(=O)O)NC(=O)CNC(=O)CNC(=O)CC[C@@H](C(=O)N[C@@H](Cc2ccc(O)cc2)C(=O)N[C@@H](Cc2ccccc2)C(=O)N[C@@H](CC(N)=O)C(=O)N[C@@H](CCCNC(=N)N)C(=O)N2CCC[C@H]2C(=O)N[C@@H](CCSC)C(=O)N[C@@H](Cc2c[nH]cn2)C(=O)N[C@H](C(=O)N[C@@H](Cc2c[nH]cn2)C(=O)N[C@@H](CC(=O)O)C(=O)N[C@@H](Cc2c[nH]c3ccccc23)C(=O)N[C@@H](CCC(N)=O)C(=O)N[C@H](C(=O)N[C@@H](CCSC)C(=O)N[C@@H](CC(=O)O)C(=O)N[C@@H](CO)C(=O)NCC(=O)N[C@@H](Cc2ccc(O)cc2)C(=O)N[C@@H](Cc2ccc(O)cc2)C(=O)NCC(=O)O)[C@@H](C)CC)[C@@H](C)CC)NC(=O)[C@H](C)NC1=O (GGDGSIAEYFNRPMHIHDWQIMDSGYYG-OH; lactam N-8)
